Assays:
[1] = Powder flow characteristics from crystal morphology at bench scale; format: physicochemical; conditions: Form II plate-like morphology vs Form I needle-like
[2] = Storage stability of crystalline Form II (conversion to Form I); format: physicochemical; conditions: stored under room temperature and pressure
Excerpt: Stable Form II can be prepared as described and stored under room temperature and pressure for greater than 3 months without conversion to Form I.

storage time without conversion to Form I [2]: greater than 3 months
SMILES: COC1CC2CCC(C)C(O)(O2)C(=O)C(=O)N2CCCCC2C(=O)OC(C(C)CC2CCC(OC(=O)C(C)(CO)CO)C(OC)C2)CC(=O)C(C)/C=C(\C)C(O)C(OC)C(=O)C(C)CC(C)/C=C/C=C/C=C/1C (centres unmarked) [CCI-779 polymorph Form II, Rapamycin 42-ester with 3-hydroxy-2-(hydroxymethyl)-2-methylpropionic acid]
powder flow characteristics relative to Form I [1]: better powder flow characteristics than form I

Source: patent US7442707B2, “CCI-779 polymorph and use thereof” (Wyeth, priority 2005, dated 2008)
